From patent US20080293699A1, “Inhibitors of thapsigargin-induced cell death” (priority 2007, published 2008)
Read-outs that look alike come from different tables or passages of the source.

Tested on: CSM14.1 cells
Assay: Primary HTS assay: ATP content (ATPlite) of undifferentiated CSM14.1 cells challenged with thapsigargin
Type: cell-based, rat
Details: thapsigargin-induced death of undifferentiated CSM14.1, ATP content
Text: For convenience, and because transient reductions in temperature that might be associated with large screening experiments could restore Large T activity, we elected to develop our HTS using undifferentiated CSM14.1 cells, with the plan to then confirm hits using differentiated cells. For monitoring cell death, we used a commercially available bioluminescence reagent that determines intracellular ATP content, without requirement for complicated cell processing steps (ATPlite, Perkin Elmer). Thus, ATP was used as a surrogate indicator of cell survival for the primary assay.
Undifferentiated or differentiated CSM14.1 cells were plated at a density of 3,000 cells/well in 40 μL DMEM medium (containing 10% serum, 1 mM L-glutamine, and antibiotics) in 96 well flat-bottom microtiter plates composed of polystrene (Greiner Bio One, polystyrene, white wall, flat bottom, lumitrac, high binding). After overnight incubation at 32° C., DMSO (0.5% v/v) or 100 uM Salubrinal (Sal) in DMSO was delivered. After 2 hrs, 5 uL of a stock solution of 150 uM TG in DMEM medium containing 0.75% (v:v) DMSO to achieve a final concentration of approximately 15 uM. After culturing for 24 hrs, cellular ATP content was measured by addition of 20 uL per well of ATPlite solution (Perkin-Elmer), and then the plates were incubated for three minutes at room temperature, before reading with a Microplate Luminometer (BD Pharmingen Moonlight model 3096).
To determine the reproducibility of the ATP content assay, we prepared a 96-well plate in which half the wells received TG plus DMSO (assay minimum) and half received TG plus Salubrinal (assay maximum), then performed the ATP content studies using undifferentiated CSM14.1 cells (FIG. 6). CSM14.1 cells were cultured overnight at 3,000 cells per well in 96-well flat-bottom plates, then either DMSO (0.5% final concentration) or Salubrinal (100 μM) in DMSO (0.5% final concentration) was added to half the well (48 each). After two hrs, TG was added to all wells (15 μM final). Cells were cultured for 24 hrs, then the ATP content was measured using the ATPlite luminogenic assay. We then adapted this assay to the high-throughput environment, using a Biomex™ FX liquid handler for automated dispensing of assay components into microwells of 96-well plates. First, undifferentiated CSM14.1 cells were grown at 32° C. in DMEM medium supplemented with 10% fetal bovine serum (FBS), 1% penicillin/streptomycin, and 1% L-glutamine in 150 mm×25 mm polystyrene culture dishes to produce approximately 3×10^6 cells. Second, CSM14.1 cells were recovered from cultures by trypsinization when at 80-90% confluence, and suspended at 7.5×10^4 cells/mL in DMEM medium containing 2% FBS, 1 mM L-glutamine, and antibiotics 100 IU penicillin 100 μg/ml streptomycin. Third, the cell suspension was then delivered at 40 μL per well of 96-well plastic microtiter plates (Greiner Bio One, polystyrene, white wall, flat bottom, lumitrac, high binding, cat #655074), and the plates were cultured overnight at 32° C. in a humidified atmosphere in 95% air: 5% CO2. Fourth, using the automated liquid handler, 5 μL of test compounds in 10% DMSO were added to wells in columns 2-11 of the 96-well plates (leaving columns 1 and 12 intact) to achieve an approximate final concentration of 15 μg/mL test compound and a final concentration of 1% DMSO. Fifth, 5 μL of 1 mM Salubrinal in a solution of 10% DMSO:90% DMEM was added to wells of column 1/rows A-D of each plate, while 5 μL of 10% DMSO:90% DMEM solution was added to wells corresponding to column 1/rows E-H and to all wells in column 12. Sixth, the plates were returned to culture.

[1] = one value given, read-out: IC50
[2] = Rattus norvegicus, one value given, read-out: IC50
[3] = first assay, read-out: IC50 (μM), first value
[4] = second assay (value in bold), read-out: IC50 (μM), value from a second assay

Row | Structure (SMILES) | IC50 [1] [µM] | IC50 [2] [µM] | IC50 [3] [µM] | IC50 [4] [µM]
1 | COc1ccc(C2CC(=O)C3=C(C2)Nc2ccccc2NC3c2c(F)cccc2Cl)cc1 (centres unmarked) [Compound 6044487] | 15.3 ± 1.51 |  |  | 
2 | COc1ccc(C2CC(=O)C3=C(C2)Nc2ccccc2NC3c2ccccc2OC(C)C)cc1 (centres unmarked) [Compound 6043556, 11-(2-isopropoxyphenyl)-3-(4-methoxyphenyl)-2,3,4,5,10,11-hexahydro-1H-dibenzo[b,e][1,4]diazepin-1-one] |  | 24 ± 2.31 |  | 
3 | COc1ccc(C2CC(=O)C3=C(C2)Nc2ccccc2NC3c2c(Cl)cccc2Cl)cc1 (centres unmarked) [Compound 6079349] | 31.5 ± 2.84 |  |  | 
4 | CCOc1ccc(CN2CCN(C(=O)c3ccc(-c4ccccc4)cc3)CC2)cc1 [Compound 5990076, 1-(4-biphenylylcarbonyl)-4-(4-ethoxybenzyl)piperazine] |  | > 200 |  | 
5 | O=C1CC(c2ccccc2)CC2=C1C(c1cccc3ccccc13)Nc1ccccc1N2 (centres unmarked) [Compound 6366991] | 22.2 ± 2.8 |  |  | 
6 | COc1ccc(C2CC(=O)C3=C(C2)Nc2ccccc2NC3c2ccc(C)cc2)cc1OC (centres unmarked) [Compound 6105705, 3-(3,4-dimethoxyphenyl)-11-(4-methylphenyl)-2,3,4,5,10,11-hexahydro-1H-dibenzo[b,e][1,4]diazepin-1-one] |  | 25 ± 0.169 |  | 
7 | CCN(CC)c1ccc(C2=Nc3ccccc3NC3=C2C(=O)CC(c2ccc(Cl)cc2)C3)cc1 (racemic) [MLS-0292126] | 16.5 |  |  | 
8 | COc1ccc(C2CC(=O)C3=C(C2)Nc2ccccc2NC3c2ccccc2C)cc1OC (centres unmarked) [Compound 6369841, 3-(3,4-dimethoxyphenyl)-11-(2-methylphenyl)-2,3,4,5,10,11-hexahydro-1H-dibenzo[b,e][1,4]diazepin-1-one] |  | 36.5 ± 2.19 |  | 
9 | COc1ccccc1CN1CCN(C(=O)c2cc(OC)c(OC)c(OC)c2)CC1 [Compound 5397316] | > 200 |  |  | 
10 | COc1ccc(C2CC(=O)C3=C(C2)Nc2ccccc2NC3c2c(F)cccc2F)cc1 (centres unmarked) [Compound 6241186] | 25 ± 0.175 |  |  | 
11 | COc1ccc(C2CC(=O)C3=C(C2)Nc2ccccc2NC3c2ccccc2Cl)cc1OC (centres unmarked) [Compound 6076307, 11-(2-chlorophenyl)-3-(3,4-dimethoxyphenyl)-2,3,4,5,10,11-hexahydro-1H-dibenzo[b,e][1,4]diazepin-1-one] |  | 41.7 ± 0.916 |  | 
12 | CCn1c2ccccc2c2cc(CN3CCN(C(=O)c4cccs4)CC3)ccc21 [Compound 5951613] |  |  | 16.74 ± 0.158 | 12.7 ± 1.11
13 | Cc1ccc(C2Nc3ccccc3NC3=C2C(=O)CC(c2ccc(Cl)cc2)C3)cc1 (centres unmarked) [Compound 6047795] | 11 ± 1.04 |  |  | 
14 | COc1ccc(C2CC(=O)C3=C(C2)Nc2ccccc2NC3c2ccc(-c3ccccc3)cc2)cc1OC (centres unmarked) [Compound 6239945, 11-(4-biphenylyl)-3-(3,4-dimethoxyphenyl)-2,3,4,5,10,11-hexahydro-1H-dibenzo[b,e][1,4]diazepin-1-one] |  | 21.8 ± 2.97 |  | 
15 | O=C1CC(c2ccccc2)CC2=C1C(c1ccccc1Cl)Nc1ccccc1N2 (centres unmarked) [Compound 6065973] | > 200 |  |  | 
16 | CCOc1ccc(C2CC(=O)C3=C(C2)Nc2ccccc2NC3c2cc(F)ccc2Cl)cc1OC (centres unmarked) [Compound 5991-0620] | > 200 |  |  | 
17 | CCCCOc1ccccc1C1Nc2ccccc2NC2=C1C(=O)CC(c1ccccc1)C2 (centres unmarked) [Compound 6066511] | 19.2 ± 2.16 |  |  | 
18 | COc1ccc(C2CC(=O)C3=C(C2)Nc2ccccc2NC3c2ccc(NC(C)=O)cc2)cc1 (centres unmarked) [Compound 6067345] | > 100 |  |  | 
19 | COc1ccc(C2CC(=O)C3=C(C2)Nc2ccccc2NC3c2cccc(Br)c2)cc1OC (centres unmarked) [Compound 6239538] | 12.5 ± 0.177 |  | 15.5 ± 0.243 | 12.5 ± 0.177
20 | COc1ccc(CN2CCN(C(=O)c3ccc(-c4ccccc4)cc3)CC2)c(OC)c1 [Compound 5955734] |  |  | 23.8 | 16.5 ± 1.47
21 | COc1ccc(C2CC(=O)C3=C(C2)Nc2ccccc2NC3c2ccccc2[N+](=O)[O-])cc1OC (centres unmarked) [Compound 6240043] | 39.6 ± 1.99 |  |  | 

Row | Structure (SMILES) | IC50 [1] [µM] | IC50 [2] [µM] | IC50 [3] [µM] | IC50 [4] [µM]
22 | CCn1c2ccccc2c2cc(CN3CCN(C(=O)c4cc(OC)c(OC)c(OC)c4)CC3)ccc21 [Compound 5397372] |  |  | 18.9 ± 0.568 | 13.5 ± 2.02
23 | COc1ccc(OC)c(CN2CCN(C(=O)c3ccc(-c4ccccc4)cc3)CC2)c1 [Compound 5990137] |  |  | 17.5 ± 0.675 | 13.9 ± 1.06
24 | O=C1CC(c2ccccc2)CC2=C1C(c1c(F)cccc1Cl)Nc1ccccc1N2 (centres unmarked) [Compound 6237973] | 19.49 ± 0.169 |  | 22.6 ± 0.68 | 19.49 ± 0.169
25 | CCn1c2ccccc2c2cc(CN3CCN(C(=O)c4ccc(OC)c(OC)c4)CC3)ccc21 [Compound 6033352] |  |  | 13.4 ± 0.248 | 13.8 ± 0.548
26 | COc1cccc(CN2CCN(C(=O)c3ccc(-c4ccccc4)cc3)CC2)c1OC [Compound 6035098] |  |  | 19.8 ± 0.721 | 16.6 ± 2.03
27 | CCn1c2ccccc2c2cc(CN3CCN(C(=O)c4ccc([N+](=O)[O-])cc4)CC3)ccc21 [Compound 6034674] |  |  | 15 ± 0.495 | 11.5 ± 0.501
28 | COc1ccc(C2CC(=O)C3=C(C2)Nc2ccccc2NC3c2ccc(O)cc2)cc1 (centres unmarked) [Compound 6045744, 11-(4-hydroxyphenyl)-3-(4-methoxyphenyl)-2,3,4,5,10,11-hexahydro-1H-dibenzo[b,e][1,4]diazepin-1-one] |  | > 200 |  | 
29 | CCOc1cccc(C2Nc3ccccc3NC3=C2C(=O)CC(c2ccc(OC)cc2)C3)c1 (centres unmarked) [Compound 6044673] | 21.2 ± 0.362 |  | 20.2 ± 0.781 | 21.2 ± 0.362
30 | COc1ccc(C2CC(=O)C3=C(C2)Nc2ccccc2NC3c2cccc(Cl)c2)cc1 (centres unmarked) [Compound 5969327, 11-(3-chlorophenyl)-3-(4-methoxyphenyl)-2,3,4,5,10,11-hexahydro-1H-dibenzo[b,e][1,4]diazepin-1-one] |  | 21.7 ± 1.07 |  | 
31 | O=C(C(c1ccccc1)c1ccccc1)N1CCN(Cc2ccccc2[N+](=O)[O-])CC1 [Compound 5948365] | 19.5 |  |  | 
32 | CSc1ccc(C2Nc3ccccc3NC3=C2C(=O)CC(c2ccccc2)C3)cc1 (centres unmarked) [Compound 5963958] | 12.5 ± 0.179 |  | 18.6 ± 9.14 | 12.5 ± 0.179
33 | CC(C)Oc1ccccc1C1Nc2ccccc2NC2=C1C(=O)CC(c1ccc(Cl)cc1)C2 (centres unmarked) [Compound 6047998] | 8.09 ± 0.832 |  |  | 
34 | COc1ccccc1CN1CCN(C(=O)c2ccc(-c3ccccc3)cc2)CC1 [Compound 5996087, 1-(4-biphenylylcarbonyl)-4-(2-methoxybenzyl)piperazine] |  | 25 to 50 |  | 
35 | COc1ccc(C2CC(=O)C3=C(C2)Nc2ccccc2NC3c2cccc(O)c2)cc1OC (centres unmarked) [Compound 3192-5300] | 53.5 ± 3.45 |  |  | 
36 | COc1ccc(C2Nc3ccccc3NC3=C2C(=O)CC(c2ccc(Cl)cc2)C3)cc1 (centres unmarked) [Compound 6049070, 3-(4-chlorophenyl)-11-(4-methoxyphenyl)-2,3,4,5,10,11-hexahydro-1H-dibenzo[b,e][1,4]diazepin-1-one] |  | 12.5 ± 0.13 |  | 
37 | CCOc1cc(C2Nc3ccccc3NC3=C2C(=O)CC(c2ccc(OC)cc2)C3)cc(Br)c1O (centres unmarked) [Compound 6048306] | 18.2 ± 1.93 |  |  | 
38 | CCN(CC)c1ccc(C2Nc3ccccc3NC3=C2C(=O)CC(c2ccc(OC)cc2)C3)cc1 (centres unmarked) [Compound 5969590] | 11.4 ± 1.49 |  |  | 
39 | COc1ccc(Br)cc1CN1CCN(C(=O)c2ccc(-c3ccccc3)cc2)CC1 [Compound 5990041] |  |  | 12.8 ± 0.318 | 14.2 ± 1.2
40 | COc1ccc(C2CC(=O)C3=C(C2)Nc2ccccc2NC3c2cccc(C(F)(F)F)c2)cc1OC (centres unmarked) [Compound 6238475] | 12.5 ± 0.17 |  | 18.81 ± 0.157 | 12.5 ± 0.17
41 | COc1ccc(C2CC(=O)C3=C(C2)Nc2ccccc2NC3c2ccc(C(C)C)cc2)cc1 (centres unmarked) [Compound 6049861] | 10.3 ± 1.28 |  |  | 
